The results in this text go back to publication PMC11345841, “Exploring 2-Sulfonylpyrimidine Warheads as Acrylamide Surrogates for Targeted Covalent Inhibition: A BTK Story” (Journal of Medicinal Chemistry, 2024).

Read-outs that look alike come from different tables or passages of the source.

Holding throughout (assay): KINOMEscan ScanTK
What all share (assay type): binding

Assay [1] addresses T1, EPHA1 (Homo sapiens, UniProt P21709).
T1 construct: purchased Eurofins DiscoverX KINOMEscan (scanTK)
T1 sequence (P21709 26-976): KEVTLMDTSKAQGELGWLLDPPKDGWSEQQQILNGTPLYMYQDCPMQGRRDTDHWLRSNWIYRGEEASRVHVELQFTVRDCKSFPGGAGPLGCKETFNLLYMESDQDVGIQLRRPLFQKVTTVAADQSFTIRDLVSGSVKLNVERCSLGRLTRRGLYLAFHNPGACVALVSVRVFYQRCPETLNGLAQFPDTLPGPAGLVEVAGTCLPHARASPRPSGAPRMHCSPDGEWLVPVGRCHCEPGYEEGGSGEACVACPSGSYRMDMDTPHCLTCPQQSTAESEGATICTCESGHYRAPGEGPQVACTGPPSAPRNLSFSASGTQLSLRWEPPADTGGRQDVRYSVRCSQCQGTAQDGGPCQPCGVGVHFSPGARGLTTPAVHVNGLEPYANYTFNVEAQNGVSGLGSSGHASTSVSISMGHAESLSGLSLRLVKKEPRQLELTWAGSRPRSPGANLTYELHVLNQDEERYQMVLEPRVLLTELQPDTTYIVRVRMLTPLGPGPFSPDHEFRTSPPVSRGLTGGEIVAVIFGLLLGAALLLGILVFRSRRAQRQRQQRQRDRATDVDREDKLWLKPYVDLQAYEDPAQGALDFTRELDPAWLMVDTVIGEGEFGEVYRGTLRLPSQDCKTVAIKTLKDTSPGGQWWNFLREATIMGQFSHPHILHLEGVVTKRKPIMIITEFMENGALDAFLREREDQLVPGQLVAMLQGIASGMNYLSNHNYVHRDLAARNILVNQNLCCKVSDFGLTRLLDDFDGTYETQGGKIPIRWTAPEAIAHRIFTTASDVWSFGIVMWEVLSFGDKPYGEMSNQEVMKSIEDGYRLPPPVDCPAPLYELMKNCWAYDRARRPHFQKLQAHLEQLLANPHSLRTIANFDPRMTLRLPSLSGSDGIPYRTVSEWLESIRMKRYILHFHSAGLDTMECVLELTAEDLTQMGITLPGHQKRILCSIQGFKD

In assay [2] the target is T2, EPHB1 (Homo sapiens, UniProt P54762).
T2 construct: purchased Eurofins DiscoverX KINOMEscan (scanTK)
T2 sequence (P54762 18-984): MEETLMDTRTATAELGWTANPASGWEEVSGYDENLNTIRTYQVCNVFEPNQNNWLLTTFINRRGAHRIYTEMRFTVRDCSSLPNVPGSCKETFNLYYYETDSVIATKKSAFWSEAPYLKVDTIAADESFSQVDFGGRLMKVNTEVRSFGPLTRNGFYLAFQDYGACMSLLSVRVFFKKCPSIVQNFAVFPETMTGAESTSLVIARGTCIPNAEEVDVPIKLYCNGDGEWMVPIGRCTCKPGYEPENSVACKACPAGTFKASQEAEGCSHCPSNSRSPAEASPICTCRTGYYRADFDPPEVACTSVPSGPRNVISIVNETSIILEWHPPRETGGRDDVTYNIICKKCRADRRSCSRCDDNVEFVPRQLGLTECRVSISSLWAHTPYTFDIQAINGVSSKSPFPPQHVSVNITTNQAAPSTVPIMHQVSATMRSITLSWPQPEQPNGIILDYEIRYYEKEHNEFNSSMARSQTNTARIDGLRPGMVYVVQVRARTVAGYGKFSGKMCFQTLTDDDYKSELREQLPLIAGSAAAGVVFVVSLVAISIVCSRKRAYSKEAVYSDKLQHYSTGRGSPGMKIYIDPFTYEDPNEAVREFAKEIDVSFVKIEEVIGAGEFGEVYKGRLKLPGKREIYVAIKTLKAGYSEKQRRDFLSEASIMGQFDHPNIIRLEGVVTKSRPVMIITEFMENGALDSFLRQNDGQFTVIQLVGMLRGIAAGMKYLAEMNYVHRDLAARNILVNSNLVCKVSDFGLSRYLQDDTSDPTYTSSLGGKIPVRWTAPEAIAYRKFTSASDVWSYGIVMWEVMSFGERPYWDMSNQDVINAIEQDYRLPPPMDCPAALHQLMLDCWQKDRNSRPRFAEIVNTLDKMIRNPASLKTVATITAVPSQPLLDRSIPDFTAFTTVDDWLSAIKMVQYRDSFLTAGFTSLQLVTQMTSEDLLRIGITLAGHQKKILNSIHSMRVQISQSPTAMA

Assay [3] concerns the target T3, PYK2 (Homo sapiens, UniProt Q14289).
T3 construct: purchased Eurofins DiscoverX KINOMEscan (scanTK)

The target in assay [4] is T4, FLT3(D835V) (Homo sapiens, UniProt P36888, D835V).
T4 construct: purchased Eurofins DiscoverX KINOMEscan (scanTK)
T4 sequence (P36888 27-993 D835V): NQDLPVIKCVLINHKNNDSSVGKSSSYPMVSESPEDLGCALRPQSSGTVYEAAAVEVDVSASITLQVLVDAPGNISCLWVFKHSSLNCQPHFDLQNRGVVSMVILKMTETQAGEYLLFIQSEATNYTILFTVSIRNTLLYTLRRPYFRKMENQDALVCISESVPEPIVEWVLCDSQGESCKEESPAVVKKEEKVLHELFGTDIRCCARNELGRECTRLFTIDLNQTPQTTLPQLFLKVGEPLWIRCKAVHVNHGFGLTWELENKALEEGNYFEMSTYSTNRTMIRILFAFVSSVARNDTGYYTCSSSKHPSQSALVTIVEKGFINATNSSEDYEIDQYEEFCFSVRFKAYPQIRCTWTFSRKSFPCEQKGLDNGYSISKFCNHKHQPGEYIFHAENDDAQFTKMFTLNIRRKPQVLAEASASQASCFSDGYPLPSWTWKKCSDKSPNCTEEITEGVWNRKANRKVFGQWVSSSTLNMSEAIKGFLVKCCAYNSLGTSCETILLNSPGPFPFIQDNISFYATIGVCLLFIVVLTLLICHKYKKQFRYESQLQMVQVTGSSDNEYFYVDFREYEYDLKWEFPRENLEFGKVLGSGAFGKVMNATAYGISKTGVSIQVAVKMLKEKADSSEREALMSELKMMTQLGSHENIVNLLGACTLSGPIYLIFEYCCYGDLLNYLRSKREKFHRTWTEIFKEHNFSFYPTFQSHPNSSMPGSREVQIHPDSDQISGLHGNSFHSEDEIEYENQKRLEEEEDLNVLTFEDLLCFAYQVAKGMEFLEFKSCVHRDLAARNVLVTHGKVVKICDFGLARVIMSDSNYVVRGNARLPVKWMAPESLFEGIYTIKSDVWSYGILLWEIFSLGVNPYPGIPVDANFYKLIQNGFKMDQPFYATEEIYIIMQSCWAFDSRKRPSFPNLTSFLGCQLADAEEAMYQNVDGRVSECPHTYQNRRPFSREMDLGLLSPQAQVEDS

[5] abbreviates: @1000nM, EPHB1, read-out: %Control.
Setting [6] is: EPHB1, read-out: %Control @1000nM.

T3 sequence (Q14289 whole entry): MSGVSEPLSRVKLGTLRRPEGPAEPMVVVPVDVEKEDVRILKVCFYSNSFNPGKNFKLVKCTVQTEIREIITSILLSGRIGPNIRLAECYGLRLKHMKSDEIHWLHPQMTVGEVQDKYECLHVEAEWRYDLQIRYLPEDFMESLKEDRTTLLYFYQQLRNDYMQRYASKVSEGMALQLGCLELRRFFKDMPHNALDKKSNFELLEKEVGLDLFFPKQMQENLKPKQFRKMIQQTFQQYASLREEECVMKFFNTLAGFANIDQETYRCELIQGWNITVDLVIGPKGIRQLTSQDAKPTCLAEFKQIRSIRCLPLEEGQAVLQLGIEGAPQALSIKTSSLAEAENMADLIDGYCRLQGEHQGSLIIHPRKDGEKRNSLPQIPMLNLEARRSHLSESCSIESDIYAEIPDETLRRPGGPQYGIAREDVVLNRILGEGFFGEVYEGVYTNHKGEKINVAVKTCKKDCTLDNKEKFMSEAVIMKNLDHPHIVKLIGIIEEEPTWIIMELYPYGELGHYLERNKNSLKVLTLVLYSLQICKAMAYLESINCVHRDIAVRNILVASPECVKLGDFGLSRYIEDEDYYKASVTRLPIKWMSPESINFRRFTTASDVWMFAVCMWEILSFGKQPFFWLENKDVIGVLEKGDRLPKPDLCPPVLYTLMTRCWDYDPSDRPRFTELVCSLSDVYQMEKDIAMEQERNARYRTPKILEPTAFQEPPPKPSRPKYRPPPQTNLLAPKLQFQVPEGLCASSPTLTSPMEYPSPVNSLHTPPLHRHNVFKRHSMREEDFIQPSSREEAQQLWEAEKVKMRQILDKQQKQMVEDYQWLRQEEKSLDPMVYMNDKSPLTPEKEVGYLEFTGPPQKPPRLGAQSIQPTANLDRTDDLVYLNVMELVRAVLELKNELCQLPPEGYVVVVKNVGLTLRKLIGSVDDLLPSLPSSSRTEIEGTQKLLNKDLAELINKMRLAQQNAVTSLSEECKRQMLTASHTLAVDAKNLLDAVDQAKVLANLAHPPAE

For `C=CC(=O)N1CCC[C@@H](n2nc(-c3ccc(Oc4ccccc4)cc3)c3c(N)ncnc32)C1` [Compound 1g, Ibrutinib, reference compound], the remaining binding at 1 µM in assay [1] (@1000nM, read-out: %Control) was 72%; in assay [1] (read-out: %Control @1000nM), 72%; in assay [2] (read-out: %Control), 90%; in assay [2] (read-out: %Control @1000nM) it was 90%; in assay [3] (@1000nM, read-out: %Control), 100%; in assay [3] (read-out: %Control @1000nM), 100%.
For the molecule `Cc1cnc(S(C)(=O)=O)nc1N1CCCC(n2nc(-c3ccc(Oc4ccccc4)cc3)c3c(N)ncnc32)C1` (centres unmarked) [Compound 8a, 1-(1-(5-Methyl-2-(methylsulfonyl)pyrimidin-4-yl)piperidin-3-yl)-3-(4-phenoxyphenyl)-1H-pyrazolo[3,4-d]pyrimidin-4-amine], the difference in %Control versus compound Ib at 1 µM turned out to be 9% in assay [1] (@1000nM) and 20.1% in assay [4] (@1000nM). Moreover, the remaining binding at 1 µM came out at 81% in assay [1] (@1000nM, read-out: %Control); 81% in assay [1] (read-out: %Control @1000nM); 93% in assay [2] (setting [5]); 93% in assay [2] (setting [6]); 30% in assay [4] (@1000nM, read-out: %Control); 30% in assay [4] (read-out: %Control @1000nM). The remaining binding at 1 µM in assay [3] (@1000nM, read-out: %Control) was 92%; in assay [3] (read-out: %Control @1000nM), 92%. In assay [2] (@1000nM, EPHB1), the difference in % of control versus compound Ib at 1 µM amounted to 3%.
Regarding `COC(=O)c1cnc(S(C)(=O)=O)nc1N1CCCC(n2nc(-c3ccc(Oc4ccccc4)cc3)c3c(N)ncnc32)C1` (centres unmarked) [Compound 8b, Methyl 4-(3-(4-Amino-3-(4-phenoxyphenyl)-1H-pyrazolo[3,4-d]pyrimidin-1-yl)piperidin-1-yl)-2-(methylsulfonyl)pyrimidine-5-carboxylate], the difference in %Control versus compound Ib at 1 µM was -16% in assay [1] (@1000nM) and 38.1% in assay [4] (@1000nM). In addition, the remaining binding at 1 µM in assay [1] (@1000nM, read-out: %Control) turned out to be 56%; in assay [1] (read-out: %Control @1000nM) it was 56%; in assay [2] (setting [5]), 88%; in assay [2] (setting [6]), 88%; in assay [4] (@1000nM, read-out: %Control) it was 48%; in assay [4] (read-out: %Control @1000nM) it was 48%. Besides, the remaining binding at 1 µM in assay [3] (@1000nM, read-out: %Control) is 85%; in assay [3] (read-out: %Control @1000nM), 85%. For the same molecule, the difference in % of control versus compound Ib at 1 µM in assay [2] (@1000nM, EPHB1) is -2%.
With `CCOC(=O)c1cnc(S(C)(=O)=O)nc1N1CCC[C@@H](n2nc(-c3ccc(Oc4ccccc4)cc3)c3c(N)ncnc32)C1` [Compound 8c, Ethyl (R)-4-(3-(4-Amino-3-(4-phenoxyphenyl)-1H-pyrazolo[3,4-d]pyrimidin-1-yl)piperidin-1-yl)-2-(methylsulfonyl)pyrimidine-5-carboxylate], the difference in %Control versus compound Ib at 1 µM was 20% in assay [1] (@1000nM) and 46.1% in assay [4] (@1000nM). The remaining binding at 1 µM in assay [1] (@1000nM, read-out: %Control) amounted to 92%; in assay [1] (read-out: %Control @1000nM), 92%; in assay [2] (setting [5]) it was 91%; in assay [2] (setting [6]), 91%; in assay [4] (@1000nM, read-out: %Control), 56%; in assay [4] (read-out: %Control @1000nM), 56%. The remaining binding at 1 µM is 81% in assay [3] (@1000nM, read-out: %Control) and 81% in assay [3] (read-out: %Control @1000nM). Besides, in assay [2] (@1000nM, EPHB1), the difference in % of control versus compound Ib at 1 µM is 1%.
Regarding `CNC(=O)c1cnc(S(C)(=O)=O)nc1N1CCCC(n2nc(-c3ccc(Oc4ccccc4)cc3)c3c(N)ncnc32)C1` (centres unmarked) [Compound 8d, 4-(3-(4-Amino-3-(4-phenoxyphenyl)-1H-pyrazolo[3,4-d]pyrimidin-1-yl)piperidin-1-yl)-N-methyl-2-(methylsulfonyl)pyrimidine-5-carboxamide], the difference in %Control versus compound Ib at 1 µM was -6% in assay [1] (@1000nM) and 13.1% in assay [4] (@1000nM). For the same molecule, the remaining binding at 1 µM in assay [1] (@1000nM, read-out: %Control) worked out at 66%; in assay [1] (read-out: %Control @1000nM), 66%; in assay [2] (setting [5]), 91%; in assay [2] (setting [6]), 91%; in assay [4] (@1000nM, read-out: %Control) it was 23%; in assay [4] (read-out: %Control @1000nM) it was 23%. Moreover, the remaining binding at 1 µM in assay [3] (@1000nM, read-out: %Control) was 100%; in assay [3] (read-out: %Control @1000nM), 100%. Also, in assay [2] (@1000nM, EPHB1), the difference in % of control versus compound Ib at 1 µM worked out at 1%.
